Results: US12440525B2 (priority 2017, dated 2025)
Where a name gives a salt, the structure may show the parent alone. Read-outs that look alike come from different tables or passages of the source.

Assays:
[1] = tested on: replication incompetent lentivirus; format: cell-based
[2] = tested on: VSVΔ51; format: cell-based, Vesicular stomatitis virus
[3] = tested on: VSVΔ51; format: cell-based, Vesicular stomatitis virus; remark: listed apart in the source
[4] = tested on: STAT1; format: cell-based, human
[5] = tested on: Sindbis virus; format: cell-based
[6] = tested on: B16F10 cells; format: cell-based, murine
[7] = tested on: B16F10 tumors; settings: mouse, in vivo
[8] = tested on: VSVΔ51; format: cell-based, Vesicular stomatitis virus; remark: listed apart in the source
[9] = tested on: NF-κB subunit p65; format: cell-based, human
[10] = tested on: 786-0 cells; format: cell-based, human
[11] = tested on: HT29 tumors; settings: mouse, in vivo
[12] = tested on: CT26WT cells; format: cell-based, murine
[13] = tested on: VSVΔ51; format: cell-based, Vesicular stomatitis virus; remark: listed apart in the source
[14] = tested on: wild-type VSV (wtVSV); format: cell-based, Vesicular stomatitis virus
[15] = tested on: VSVΔ51; format: cell-based, Vesicular stomatitis virus; remark: listed apart in the source
[16] = tested on: STAT1; format: cell-based, human; remark: listed apart in the source
[17] = tested on: CT26WT tumors; settings: mouse, in vivo
[18] = tested on: VSVΔ51; format: cell-based, Vesicular stomatitis virus; remark: listed apart in the source
[19] = tested on: VSVΔ51; format: cell-based, Vesicular stomatitis virus; remark: listed apart in the source
[20] = tested on: VSV-viral proteins; format: cell-based, Vesicular stomatitis virus
[21] = tested on: VSVΔ51; format: cell-based, Vesicular stomatitis virus; remark: listed apart in the source
[22] = tested on: STAT2; format: cell-based, human
[23] = tested on: VSVΔ51; format: cell-based, Vesicular stomatitis virus; remark: listed apart in the source
[24] = tested on: IFITM1; format: cell-based, human
[25] = tested on: VSVΔ51; format: cell-based, Vesicular stomatitis virus; remark: listed apart in the source
[26] = tested on: HSV-1 mutant N212; format: cell-based, herpes simplex virus
[27] = tested on: wtVSV; format: cell-based, Vesicular stomatitis virus
[28] = tested on: E1A-deleted Ad5; format: cell-based, adenovirus serotype 5

COC(=O)/C=C/C(=O)O [MMF, monomethyl fumarate]
increase in lentivirus yield [1]: 2.4 fold

O=C(O)/C=C/C(=O)O [FA, fumaric acid]
infection of VSVΔ51 / viral growth [2]: no impact on viral growth

COC(=O)/C=C\C(=O)OC [DMM, dimethyl maleate]
VSVΔ51 infection, spread, and oncolysis [2]: robustly enhanced | VSVΔ51 infection, spread, and oncolysis [3]: robustly enhanced

CCOC(=O)/C=C\C(=O)OCC [DEM, diethyl maleate]
STAT1 phosphorylation in cells conditioned with IFNβ [4]: inhibited STAT1 phosphorylation | VSVΔ51 infection, spread, and oncolysis [2]: robustly enhanced | VSVΔ51 infection, spread, and oncolysis [3]: robustly enhanced

COC(=O)CCC(=O)OC [DMS, dimethyl succinate]
viral output of VSVΔ51 [2]: no impact on viral output

CCOC(=O)/C=C/C(=O)OCC [DEF, diethyl fumarate]
VSVΔ51 infection, spread, and oncolysis [2]: robustly enhanced | VSVΔ51 infection, spread, and oncolysis [3]: robustly enhanced

COC(=O)/C=C/C(=O)OC [DMF, dimethyl fumarate]
viral output of Sindbis virus [5]: improved viral output | cell viability, combined treatment with VSVΔ51 [6]: synergistic decrease in cell viability | mice with complete remission, combination therapy [7]: approximately 20% | survival, combination therapy compared with either monotherapy [7]: significantly prolonged survival | tumor progression, combination therapy DMF + VSVΔ51 [7]: considerable delay in tumor progression | protective (suppressive) effect of VSVΔ51ΔG-infected cell supernatant on subsequent infection [8]: completely overcome this suppressive effect | phosphorylation and translocation of NF-κB subunit p65 upon TNFα stimulation [9]: inhibits phosphorylation and translocation | phosphorylation and translocation of NF-κB subunit p65 upon infection [9]: inhibits phosphorylation and translocation | cell viability, combined treatment with VSVΔ51 [10]: synergistic decrease in cell viability | STAT1 phosphorylation in cells conditioned with IFNβ [4]: inhibited STAT1 phosphorylation | survival, combination therapy compared with either monotherapy [11]: significantly prolonged survival | tumor progression, combination therapy DMF + VSVΔ51 [11]: considerable delay in tumor progression | virus-associated luciferase gene expression in tumors [11]: enhanced virus-associated luciferase gene expression | Virus-encoded GFP expression [2]: greatly enhanced | increase of VSVΔ51 virus growth [2]: more than 100 fold | infection of VSVΔ51 [2]: enhanced infection | pre-treatment time prior to infection at which the enhancing effect was observed [2]: up to 24 hours | time post-infection of treatment at which the enhancing effect was observed [2]: up to 8 hours | viral output of VSVΔ51, growth curve at low MOI [2]: enhanced the viral output | cell viability, combined treatment with VSVΔ51 [12]: synergistic decrease in cell viability | VSVΔ51 infection in patient-derived cancer cell lines [13]: increased VSVΔ51 infection | infection of 786-0 cells by wild-type VSV [14]: no impact on infection | virus growth in normal tissue cores [15]: did not increase virus growth | activation (phosphorylation) of STAT1 [16]: decreased activation (phosphorylation) | challenge of cured mice with a foreign tumor [17]: grew 4T1 tumors at a similar rate as the naive mice | mice with complete remission, combination therapy [17]: approximately 20% | re-challenge of cured mice with the same cancer cells [17]: immune to re-challenge | survival, combination therapy compared with either monotherapy [17]: significantly prolonged survival | tumor progression, combination therapy DMF + VSVΔ51 [17]: considerable delay in tumor progression | virus-associated luciferase gene expression in tumors [17]: enhanced virus-associated luciferase gene expression | average plaque diameter of VSVΔ51 [18]: substantially increased | VSVΔ51 infection in panel of cancer cell lines [19]: robustly enhanced infection | VSV-viral proteins [20]: increased | virus growth in human normal tissues [21]: did not improve virus growth | activation (phosphorylation) of STAT2 [22]: decreased activation (phosphorylation) | increase of VSVΔ51 infection ex vivo in primary human tumor samples [23]: > 10 fold | expression levels of the antiviral protein IFITM1 [24]: potently repressed | antiviral effects of Type I IFN pretreatment on VSVΔ51 infection [25]: antagonized the antiviral effects | viral output of oncolytic herpes virus [26]: improved viral output | protective (suppressive) effect of VSVΔ51ΔG-infected cell supernatant on subsequent infection [27]: completely overcome this suppressive effect | increase of luciferase transgene expression [28]: up to 20 fold
